Test results taken from PMC3914206.

Legend:
Type in all cases: binding
Settings in all cases: Compound Concentration 10 µM
panel of 442 kinases [1] = molecular target: T1, panel of 442 kinases (Homo sapiens, UniProt P21802)
T1 construct: purchased KINOMEscan
Description: (§1) We assessed the selectivity of members of this scaffold using the KINOMEscan methodology across a near comprehensive panel of 442 kinases [[18,27]].

panel of 442 kinases [2] = molecular target: T2, panel of 442 kinases (Homo sapiens, UniProt P36888, N841I)
T2 construct: purchased KINOMEscan
T2 sequence (P36888 27-993 N841I): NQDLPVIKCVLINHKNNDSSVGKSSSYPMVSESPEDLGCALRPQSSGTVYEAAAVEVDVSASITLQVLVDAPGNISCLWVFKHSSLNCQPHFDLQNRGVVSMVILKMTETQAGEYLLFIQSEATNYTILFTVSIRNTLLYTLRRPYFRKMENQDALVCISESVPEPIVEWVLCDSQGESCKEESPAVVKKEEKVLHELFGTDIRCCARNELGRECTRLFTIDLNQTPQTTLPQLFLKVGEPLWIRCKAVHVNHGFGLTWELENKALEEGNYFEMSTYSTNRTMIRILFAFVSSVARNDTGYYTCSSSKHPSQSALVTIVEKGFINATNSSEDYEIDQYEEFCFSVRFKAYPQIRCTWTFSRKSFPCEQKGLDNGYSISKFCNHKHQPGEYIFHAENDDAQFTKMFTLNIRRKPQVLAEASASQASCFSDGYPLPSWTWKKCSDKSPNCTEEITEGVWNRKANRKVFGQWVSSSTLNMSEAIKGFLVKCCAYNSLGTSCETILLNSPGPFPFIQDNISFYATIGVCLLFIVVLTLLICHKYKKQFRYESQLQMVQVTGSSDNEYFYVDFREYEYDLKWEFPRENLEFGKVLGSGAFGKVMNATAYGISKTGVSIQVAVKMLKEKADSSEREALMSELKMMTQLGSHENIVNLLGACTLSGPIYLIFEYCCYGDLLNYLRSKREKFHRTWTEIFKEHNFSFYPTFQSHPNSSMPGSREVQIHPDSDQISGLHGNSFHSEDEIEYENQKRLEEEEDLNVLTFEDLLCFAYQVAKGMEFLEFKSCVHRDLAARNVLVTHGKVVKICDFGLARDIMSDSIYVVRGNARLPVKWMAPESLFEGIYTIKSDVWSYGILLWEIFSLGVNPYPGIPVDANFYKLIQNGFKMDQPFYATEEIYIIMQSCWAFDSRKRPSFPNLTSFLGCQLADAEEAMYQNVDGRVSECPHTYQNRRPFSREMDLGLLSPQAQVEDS
Description: as §1

panel of 442 kinases [3] = molecular target: T3, panel of 442 kinases (Homo sapiens, UniProt Q13177)
T3 construct: purchased KINOMEscan
Description: as §1

T3 sequence (Q13177 whole entry): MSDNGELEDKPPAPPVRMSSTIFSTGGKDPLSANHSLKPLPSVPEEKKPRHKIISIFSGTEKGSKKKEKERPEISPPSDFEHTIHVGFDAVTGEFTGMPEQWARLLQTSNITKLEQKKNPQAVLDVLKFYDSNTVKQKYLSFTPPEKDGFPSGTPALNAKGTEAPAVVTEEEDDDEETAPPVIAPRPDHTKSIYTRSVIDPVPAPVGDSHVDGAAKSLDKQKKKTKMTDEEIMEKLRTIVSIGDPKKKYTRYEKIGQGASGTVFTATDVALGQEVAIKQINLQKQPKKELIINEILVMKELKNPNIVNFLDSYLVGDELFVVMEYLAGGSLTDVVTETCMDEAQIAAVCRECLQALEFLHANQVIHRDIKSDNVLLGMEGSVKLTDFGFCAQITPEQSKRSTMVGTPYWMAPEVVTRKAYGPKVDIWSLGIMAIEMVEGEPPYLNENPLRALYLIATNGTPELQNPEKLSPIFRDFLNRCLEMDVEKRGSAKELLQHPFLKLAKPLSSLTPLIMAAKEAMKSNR
T1 sequence (P21802 22-821): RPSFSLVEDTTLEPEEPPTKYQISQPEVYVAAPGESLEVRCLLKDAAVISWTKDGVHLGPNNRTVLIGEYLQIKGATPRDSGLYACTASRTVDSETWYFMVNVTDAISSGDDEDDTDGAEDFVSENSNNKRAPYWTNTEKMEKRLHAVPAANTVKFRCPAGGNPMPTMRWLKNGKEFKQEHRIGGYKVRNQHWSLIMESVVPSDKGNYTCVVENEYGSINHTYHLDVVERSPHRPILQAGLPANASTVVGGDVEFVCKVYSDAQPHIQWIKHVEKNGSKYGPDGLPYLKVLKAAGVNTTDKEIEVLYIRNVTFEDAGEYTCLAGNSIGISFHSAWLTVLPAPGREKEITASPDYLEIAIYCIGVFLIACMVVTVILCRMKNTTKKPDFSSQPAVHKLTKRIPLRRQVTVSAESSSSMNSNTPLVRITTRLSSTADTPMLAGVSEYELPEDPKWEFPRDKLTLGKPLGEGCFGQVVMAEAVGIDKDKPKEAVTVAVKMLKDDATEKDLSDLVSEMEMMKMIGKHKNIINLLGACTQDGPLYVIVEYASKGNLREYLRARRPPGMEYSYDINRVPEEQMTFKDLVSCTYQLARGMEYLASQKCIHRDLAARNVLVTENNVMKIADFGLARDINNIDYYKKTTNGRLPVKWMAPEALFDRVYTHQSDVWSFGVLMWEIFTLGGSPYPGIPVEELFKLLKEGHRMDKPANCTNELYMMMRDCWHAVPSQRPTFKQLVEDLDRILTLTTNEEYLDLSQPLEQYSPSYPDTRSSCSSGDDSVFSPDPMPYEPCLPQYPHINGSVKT

| SMILES | KINOMEscan: FGFR2 (panel of 442 kinases [1]) | KINOMEscan: FLT3(N841I) (panel of 442 kinases [2]) | KINOMEscan: PAK2 (panel of 442 kinases [3]) |
| --- | --- | --- | --- |
| CCOc1cc(C(=O)N2CCC(N3CCN(C)CC3)CC2)ccc1Nc1ncc2c(n1)N(C1CCCC1)c1ccccc1C(=O)N2C [Compound 26] | 100 | 100 | 92 |
| COc1cc(C(=O)N2CCC(N3CCN(C)CC3)CC2)ccc1Nc1ncc2c(n1)N(C1CCCC1)c1ccccc1C(=O)N2C [Compound 25, 11-cyclopentyl-2-((2-methoxy-4-(4-(4-methylpiperazin-1-yl)piperidine-1-carbonyl)phenyl)amino)-5-methyl-5H-benzo[e]pyrimido[5,4-b][1,4]diazepin-6(11H)-one] | 100 | 90 | 90 |
| COc1cc(C(=O)N2CCC(N3CCN(C)CC3)CC2)ccc1Nc1ncc2c(n1)N1CCc3cccc(c31)C(=O)N2C [Compound 24] | 83 | 55 | – |
| COc1cc(C(=O)N2CCC(N3CCN(C)CC3)CC2)ccc1Nc1ncc2c(n1)N(C)c1ccccc1C(=O)N2C [15 (LRRK2-IN-1)] | 95 | 73 | 65 |
